Data on one substance can be found in PMC8250858, “A Systematic Study of the Stability, Safety, and Efficacy of the de novo Designed Antimicrobial Peptide PepD2 and Its Modified Derivatives Against Acinetobacter baumannii” (Frontiers in Microbiology, 2021).

One data set is described as follows: Hemolytic assay. Conditions: rat red blood cells, 256 μg/mL peptide, 37°C 45 min; read-out: Hemolysis (%) at 256 μg/mL. The class given is cell-based, rat. The method, then:
The blood cells were washed three times with PBS, where the volume of PBS was the same as that of the original blood, by gently turning the centrifuge tube upside down. After washing, ten microliters of blood cells were diluted 2,000-fold in PBS to count the cells. Finally, red blood cells were diluted to 5 × 10^8 cells/mL in PBS. Peptides were dissolved in water and filtered through a 0.2-μm filter to make a stock solution. The peptide concentration was quantitated by the UV280. The peptide solution was diluted in PBS to different concentrations (five times the tested concentrations). Twenty microliters of the peptide in PBS was mixed with 80 μL of red blood cell solution in a 96-well plate (V-bottom). The final peptide concentration was 16–256 μg/mL. In the positive control group, 20 μL of 5% Triton X-100 was added to the red blood cell solution for a final Triton X-100 concentration of 1%. For the negative control group, 20 μL of PBS solution was added. The 96-well plate was incubated at 37°C for 45 min. After centrifuging the 96-well plate at 1,500 × g for 5 min, 30 μL of the supernatant was mixed with 100 μL of deionized water in a 96-well plate (flat bottom). The concentration of heme in each well was measured by the UV405 using an Infinite M1000 pro (Tecan Austria GmbH, Austria). The hemolytic activity was calculated using the following formula. Hemolyticactivity=[(F-F0)/(Ft-F0)]×100% F is the UV405 of the peptide-treated sample F0 is the UV405 of the sample without peptide (negative control) Ft is the UV405 of the Triton-treated sample (positive control)

The nature of a further data set: in vitro. The class given is in vitro ADME, rat. Conditions: rat, plasma, rat plasma, room temperature. As for the experimental part: EDTA-treated rat whole blood was centrifuged at 4°C and 840 × g for 5 min, and then the blood cells were removed ([[…] et al., 2019]). The supernatant was placed in an Eppendorf tube and centrifuged at 4°C and 13,000 rpm for 10 min to remove lipids (white precipitate). The supernatant was filtered through a 0.2-μm filter. The peptide was dissolved in water and filtered through a 0.2-μm filter. The peptide concentration was quantified by the UV280 to make a 1 mg/mL stock solution. […] At the indicated time, the peptide was analyzed by HPLC with a C18 column using a linear gradient of 20-65% B over 15 min. Solution A: 5% acetonitrile plus 0.1% trifluoroacetic acid in water; solution B: 0.1% trifluoroacetic acid in acetonitrile.

For orientation: half-life means the time in which the quantity being followed falls by half. Higher therefore signals slow loss. Turning to Ac-WKKIKKIIKKIKKI-NH2 [pepI2], the hemolysis at 45 min, 256 μg/mL in “Hemolytic assay” came out at 0.27%. Besides, in “in vitro”, the half-life at 0.6 mg/mL is 11.2 h.
